Measured values taken from patent publication US20250041624A1, “METHOD FOR ENHANCING ACTIVITY OF PHOTOSENSITIZER BY MAGNETIC FIELD” (PEKING UNIVERSITY, priority 2021, published 2025).

How the values were obtained:
[1] = Singlet oxygen quantum yield and lifetime (1270 nm phosphorescence in D2O) under magnetic field; assay type: physicochemical; settings: for τΔ (lifetime of singlet oxygen): RB 10 μmol/L in D2O
Description: (4) Singlet oxygen (^1O2), quantum yield (ΦΔ) and lifetime (τΔ) are measured by the following experiment. The phosphorescence of singlet oxygen (^1O2) generated at 1270 nm is determined in air saturated D2O solution of RB (10 μmol/L). The solution is excited at 561 nm.
The magnetic field effect MFs (ΦΔ,B) is calculated by the following formula: ΦΔ,B=ΦΔ,0×(IB/I0), where IB and I0 are peak areas of emission peaks at a magnetic field strength of B and without magnetic field strength, respectively.
The change rate of the magnetic field effect is:
The lifetime (τΔ) of singlet oxygen (^1O2) is affected by the magnetic field effect is as follows: […]

HeLa cells [2] = test: 14-day culture and crystal violet staining of HeLa cells after light and magnetic field; assay type: cell-based
Description: (2) HeLa cells (1×10^3/well) are seeded in 6-well plates, 30 μL aqueous solution of RB (final concentration of 30 μM) or equal volume 0.01M PBS buffer is added as control, and, after 24 h incubation in DMEM (comprising FBS) medium, cells are washed 3 times with PBS buffer.
The cells are treated in the dark or with 10 min light (561 nm […], 5 mW·cm^−2) under magnetic field conditions at 0 mT, 250 mT, 800 mT respectively. Culture is continued in the dark, and media is changed every other day. After 14 days, it is rinsed with PBS buffer and methanol, and cells are stained with added 0.1 wt % aqueous solution of crystal violet, and the number of cells in the plate is shown in FIG. 9; and the relative cell activity of HeLa cells at a concentration of 30 μmol/L RB under the magnetic field conditions of 0 mT, 250 mT, 800 mT is shown in FIG. 10.

HeLa cells [3] = test: H2DCFDA fluorescence imaging of intracellular oxidation in HeLa cells; assay type: cell-based; settings: RB 30 μmol/L, FIG. 11
Description: (1) HeLa cells are seeded on sterile glass coverslips and placed in DMEM (comprising FBS) plates for 12 h. Then appropriate amount of 30 μmol/L RB or 0.01 mol/L PBS buffer is added, respectively. After 24 h in dark, H2DCFDA (dichlorofluorescein diacetate, ≥97%, purchased from Sigma-Aldrich) is added to give final concentration of 10 μmol/L and cells are incubated for another 30 min, and then are washed 3 times with PBS buffer.
Said HeLa cells are placed under the magnetic field conditions of 0 mT, 250 mT, 800 mT, respectively, without irradiation or with 10 min light (561 nm, 5 mW·cm^−2). Fluorescence images are obtained using Nikon A1R-si laser scanning confocal microscopy (488 nm excitation, 515±15 nm received fluorescence), where H2DCFDA is the indicator that reacts with cellular singlet oxygen ^1O2 to increase fluorescence emission intensity (excitation wavelength is 504 nm, and emission wavelength is 529 nm).
The change rate of fluorescence intensity in Hela cells added with RB under the conditions of light and magnetic field at 0, 250 or 800 mT is shown in FIG. 12. The change rate of fluorescence intensity is (IB−I0)/I0×100%, IB is the fluorescence intensity at magnetic field strength of B, and I0 is the fluorescence intensity without magnetic field. In FIG. 12, ** is the statistical probability p<0.01; *** is p<0.005, and p<0.05 is considered significant.

Bax/Bcl-2 = test: Western blot of Bax/Bcl-2 in HeLa cells; assay type: cell-based; settings: RB 30 μmol/L treated HeLa; light; 250 mT vs no magnetic field
Description: (§1) HeLa cells (2×10^4/well) are seeded in 6-well plates and cultured for 24 hours, added with RB solution (final concentration 30 μmol/L) or PBS buffer (final concentration 0.01 mol/L), and after treating 24 hours, cells are washed 3 times with PBS buffer.
(§2) The cells are placed under a magnetic field at 0, 250 or 800 mT, simultaneously with light (561 nm, 5 mW·cm^−2) or in the dark. After 24 hours treatment, cells are washed with PBS buffer and collect by centrifugation. Protein is extracted from cells using RIPA lysis buffer (medium lysis strength). Target protein is detected with primary antibody, to identify cleaved Caspase-3 protease, Bax (BCL2-Associated X protein) and Bcl-2 (B lymphocytomatose-2 gene), respectively, with β-Actin antibody as the reference. Images are acquired by Bio-Rad ChemiDoc touch imaging system, and results are shown in FIG. 14, in which, group A is PBS buffer treated HeLa cells (light, no magnetic field); group B is RB treated HeLa cells (light, no magnetic field); group C is RB-treated Hela cells (light, 250 mT magnetic field); group D is RB-treated Hela cells (light, 800 mT magnetic field).
(§3) The change rate of protein expression is (AB−A0)/A0×100%, where AB and A0 are protein expression with and without magnetic field, respectively (obtained by ImageJ software analyzing the bands in FIG. 14).

cleaved Caspase-3 = test: Western blot of cleaved Caspase-3 in HeLa cells; assay type: cell-based; settings: RB 30 μmol/L treated HeLa; light; 250 mT vs no magnetic field
Description: as §1, §2, §3

[4] = test system: HeLa xenograft tumor tissue; test: IHC staining (Bax, Bcl-2, cleaved Caspase-3) of xenograft tumor tissue sections for apoptosis; assay type: in vivo, BALB/c nude mice; settings: RB added, day 14, FIG. 19
Source text: Test (two): After sacrificing the mice on day 14, tumor tissue and major organs (heart, liver, spleen, lungs and kidney) are collected and detected histologically. Tumor tissue and major organs are fixed by 10% neutral formalin solution. Hematoxylin-Eosin (H&E) staining is used to analyze toxicity of light and magnetic field effects on tumor and normal organs. Terminal deoxynucleotidyl transferase-mediated dUTP nick end labeling (TUNEL) staining is used to detect apoptosis in tumor tissue, and expression of cleaved Caspase-3, Bax and Bcl-2 in tumor tissue is simultaneously detected.

O=C1OC2(c3cc(I)c(O)c(I)c3Oc3c2cc(I)c(O)c3I)c2c(Cl)c(Cl)c(Cl)c(Cl)c21 [RB, Rose Bengal]
τΔ (lifetime of singlet oxygen) ([1]; MF 0 mT): 66.7 ± 2.8 μs | τΔ (lifetime of singlet oxygen) ([1]; MF 30 mT): 65.8 ± 7.1 μs | τΔ (lifetime of singlet oxygen) ([1]; MF 50 mT): 60.7 ± 2.0 μs | τΔ (lifetime of singlet oxygen) ([1]; MF 90 mT): 62.6 ± 3.2 μs | τΔ (lifetime of singlet oxygen) ([1]; MF 120 mT): 69.5 ± 4.7 μs | τΔ (lifetime of singlet oxygen) ([1]; MF 150 mT): 62.8 ± 0.8 μs | τΔ (lifetime of singlet oxygen) ([1]; MF 200 mT): 65.4 ± 4.5 μs | rate of change of luminescence quantum yield of 1O2 ([1]; RB 10 μmol/L in air saturated D2O, excited at 561 nm, with increasing magnetic field, FIG. 21): −5% to +10% | cytotoxicity against HeLa cells in the absence of light (HeLa cells [2]; RB 30 μM, dark, with or without magnetic field, FIG. 9): no cytotoxicity | cell numbers relative to PBS-only treatment (HeLa cells [2]; RB 30 μM, light alone (0 mT), 14 days, FIG. 9): significantly lower | cell numbers (HeLa cells [2]; RB 30 μM, light, 250 mT, 14 days, FIG. 9): the least | cell numbers (HeLa cells [2]; RB 30 μM, light, 800 mT, 14 days, FIG. 9): more under 800 mT conditions compared to 0 mT and 250 mT conditions | reduction of cell number relative to 0 mT (HeLa cells [2]; RB 30 μmol/L, light, 250 mT, FIG. 10): 17% | increase of cell number relative to 0 mT (HeLa cells [2]; RB 30 μmol/L, light, 800 mT, FIG. 10): 32% | fluorescence intensity of HeLa cells (H2DCFDA) (HeLa cells [3]; absence of magnetic field, vs PBS): stronger than that with PBS | fluorescence intensity of HeLa cells (H2DCFDA) (HeLa cells [3]; irradiation 561 nm 10 min and 250 mT): stronger than those under the absence of magnetic field and the magnetic field of 800 mT | change rate of Bax/Bcl-2 expression (%) (Bax/Bcl-2): 10.6 ± 0.5% | change rate of cleaved Caspase-3 expression (%) (cleaved Caspase-3): 34.1 ± 1.9% | apoptosis in tumor sections (IHC) ([4]; magnetic field of 250 mT): apoptosis is more pronounced | apoptosis in tumor sections (IHC) ([4]; magnetic field of 800 mT): apoptosis is not significant
